Source: US20190259469A1, “Method for Evaluating Genotoxicity of Substance” (priority 2017, published 2019)
Read-outs that look alike come from different tables or passages of the source.

Assays:
Salmonella TA100 strain [1] = test: Mutation analysis by high-throughput sequencing of total DNA of TA100 strain exposed to mutagen; type: cell-based, S. typhimurium
Procedure: (§1) In this Example, the genotoxicity of a mutagen was analyzed by qualitatively and quantitatively analyzing mutation patterns in the genome of an organism exposed to the mutagen according to the analysis method of the present invention. The mutagen used was ethylnitrosourea (ENU, CAS No. 759-73-9). A Salmonella TA100 strain which is available for detection of a base pair substitution mutation and is routinely used in the Ames test was used as the organism to be exposed to the mutagen. The experiment was conducted in 3 independent operations to prepare samples (n=3).
(§2) The exposure to the mutagen was carried out in conformity to the preincubation method of the Ames test (K. Mortelmans et al., Mutat. Res. —Fundam. Mol. Mech. Mutagen., 2000, 455, 29-60). TA100 strain was inoculated to 2 mL of Nutrient Broth No. 2 (manufactured by Oxoid Ltd.) and shake-cultured at 37° C. at 180 rpm for 4 hours to obtain a preculture solution having an O.D. 660 value of 1.0 or more. ENU (54%; manufactured by Sigma-Aldrich Co. LLC) was diluted with dimethyl sulfoxide (DMSO; manufactured by Wako Pure Chemical Industries, Ltd.). One hundred μL of the ENU solution diluted into an appropriate concentration, 500 μL of a 0.1 M phosphate buffer, and 100 μL of the preculture solution were added into a test tube (ENU concentration: 67.5, 135, 270, 405, 540, 810, and 1080 μg/tube), and shake-cultured at 100 rpm for 20 minutes in a water bath of 37° C. For a control group, 100 μL of a solvent (DMSO) was added instead of the ENU solution. After the shake culture for 20 minutes, the test tube containing the culture solution was taken out of the water bath. Fifty μL of the culture solution was added to 2 mL of a nutrient broth solution dispensed in advance, and additionally cultured at 37° C. at 180 rpm for 14 hours. Then, 1 mL of the bacterial suspension was recovered and centrifuged at 7,500 rpm for 5 minutes. The supernatant was removed to recover bacterial cells.
From the bacterial cells obtained in the paragraph 1., total DNA was recovered using DNeasy Blood & Tissue Kit (manufactured by Qiagen N.V.) according to the recommended protocol.
The total DNA solutions recovered in the paragraph 2. from the control group and the ENU treatment groups were sequenced using a next-generation sequencer HiSeq 2500 (manufactured by Illumina, Inc.) according to the standard protocol. In this operation, DNA was fragmented into an average length of approximately […] by ultrasonic treatment. Adaptors were added to both ends of each fragment. The fragments were sequenced at a read length of 2×125 bp. 5.0-Gbp nucleotide sequence information per sample was obtained on average.
The editing of read sequences obtained by the sequencing and mutation analysis were conducted using Cutadapt software, PEAR software, Bowtie 2 software, Samtools software, and a program created using a programming language Python according to the conceptual diagram of analysis flow shown in Schematic diagram 2 in the same way as in Example 1. In this Example, PCR duplicates were removed using Picard tools (broadinstitute.github.io/picard/) after mapping using the Bowtie 2 software.
A reference sequence for the mapping using the Bowtie 2 software was constructed on the basis of the genomic sequence of the S. typhimurium TA100 strain. First, DNA was extracted from the TA100 strain and sequenced using a next-generation sequencer HiSeq 2500 (manufactured by Illumina, Inc.) according to the standard protocol. In this operation, the DNA was fragmented into an average length of approximately 300 bp by ultrasonic treatment. Adaptors were added to both ends of each fragment. The fragments were sequenced at a read length of 2×125 bp. The obtained read sequences were mapped to the genomic sequence of a S. typhimurium LT-2 strain, a pSLT plasmid sequence (GCA000006945.2), and a R46 plasmid sequence (NC_003292.1), followed by mutation detection using Samtools software. […]

Salmonella TA100 strain [2] = type: cell-based, S. typhimurium; settings: for The number of revertants: mean and standard deviation of 3 plates
Procedure: as §1, §2
For the Ames test, a bacterial suspension exposed to ENU under the same conditions as above was also prepared. Two mL of top agar (containing 1% NaCl, 1% agar, 0.05 mM histidine and 0.05 mM biotin) warmed to 45° C. was added thereto, and the bacterial cells were suspended by vortex. Then, the suspension was layered over a minimal glucose agar medium (Tesmedia (Registered trademark) AN; manufactured by Oriental Yeast Co., Ltd.). The obtained plate was cultured at 37° C. for 48 hours. Then, observed colonies were counted.
The data was indicated by a mean and standard deviation of measurement values from 3 plates.

[3] = ENU 540 μg/tube, control subtracted

## CCN(N=O)C(N)=O [ENU, ethylnitrosourea]
Salmonella TA100 strain [1]; 3-base context, FIG. 7 and FIG. 8
  Increased mutation frequencies by sequence context analysis (96 mutation types), C>T mutation: larger increase in mutation frequency was found in a context with a pyrimidine base (C or T) located at 3′ side to the C
Salmonella TA100 strain [1]; [3]
  Ratio of AT > CG mutation pattern to the whole of increased mutation frequencies (mutation spectrum): 2.36%
  Ratio of AT > GC mutation pattern to the whole of increased mutation frequencies (mutation spectrum): 12.4%
  Ratio of AT > TA mutation pattern to the whole of increased mutation frequencies (mutation spectrum): 11.5%
  Ratio of GC > AT mutation pattern to the whole of increased mutation frequencies (mutation spectrum): 73.7%
Salmonella TA100 strain [1]; ENU 135, 270, 405 and 540 μg/tube, FIG. 4A
  Increased mutation frequencies of GC base pair mutation patterns: increase in the frequency of GC>AT mutation was found
Salmonella TA100 strain [1]; ENU 135, 270, 405 and 540 μg/tube, FIG. 4B
  Increased mutation frequencies of AT base pair mutation patterns: increase in the frequencies of AT>TA and AT>GC mutations was mainly found
Salmonella TA100 strain [2]; ENU 67.5 μg/plate
  The number of revertants: 258 ± 2.5
Salmonella TA100 strain [2]; ENU 135 μg/plate
  The number of revertants: 659 ± 113.9
Salmonella TA100 strain [2]; ENU 270 μg/plate
  The number of revertants: 3320 ± 734.4
Salmonella TA100 strain [2]; ENU 405 μg/plate
  The number of revertants: 4994 ± 455.6
Salmonella TA100 strain [2]; ENU 540 μg/plate
  The number of revertants: 5051 ± 173.0
Salmonella TA100 strain [2]; ENU 810 μg/plate, growth inhibition on plate
  The number of revertants: 3102 ± 883.0
Salmonella TA100 strain [2]; ENU 1080 μg/plate, growth inhibition on plate
  The number of revertants: 503 ± 190.9
Salmonella TA100 strain [2]; ENU 67.5 to 1080 μg/plate against DMSO
  Change in the number of revertants by exposure: Increase in the number of revertants was found
